Assay results from EP3323812B1, “ARYLALKYL-AND ARYLOXYALKYL-SUBSTITUTED EPITHELIAL SODIUM CHANNEL BLOCKING COMPOUNDS” (Parion Sciences, Inc., priority 2012, dated 2014).

Key:
CBE cells = assay: Airway hydration: apical surface liquid retention on primary CBE cells at air-liquid interface; assay type: cell-based, canine; conditions: 10 µM, after 8 hours, 50 µl applied to apical surface of CBE cells
Experimental: Primary CBE cells are plated onto collagen-coated, porous membranes maintained at an air-liquid interface to assess maintenance of surface liquid volume over time. […] To reduce artifact due to an apical carbohydrate osmotic gradient upon water loss, glucose was not included in the apical buffer.

Muc5B = Muc5B (Homo sapiens, UniProt Q9HC84); conditions: in vitro; also printed as 3.26%; cited from earlier work

For `N=C(N)NC(=O)c1nc(Cl)c(N)nc1N` [Amiloride, amiloride], the “surface liquid retained (% initial volume)” value (CBE cells) was 25±19.2%.
For `CC(=O)N[C@@H](CS)C(=O)O` [NAC, N-acetyl cysteine], the “concentration required to fully reduce Muc5B” value (Muc5B) is given as 200 mM.
